From US20260053931A1, “MDM2 TARGETING PROTACS” (THE WISTAR INSTITUTE OF ANATOMY AND BIOLOGY, priority 2023, published 2026)

How the values were obtained:
Mdm2 [1] = biological target: T1, Mdm2 (Homo sapiens, UniProt Q00987); test: Mdm2 HTRF binding assay (Table 2); settings: read-out: Mdm2 HTRF IC50
Description: An HTRF binding assay was developed using a biotinylated peptide containing the Mdm2-binding domain of p53 and a recombinant GST-tagged N-terminus of Mdm2 containing the p53-binding domain. HTRF is a proximity-based fluorescence energy transfer (FRET) assay that takes advantage of the unique time-resolved fluorescence of the lanthanide chelates, such as terbium and europium. HTRF IC50 values are provided for all key compounds (FIG. 13C, FIG. 19B, and Table 2).
Target sequence in this assay (Q00987 26-109 limits assumed): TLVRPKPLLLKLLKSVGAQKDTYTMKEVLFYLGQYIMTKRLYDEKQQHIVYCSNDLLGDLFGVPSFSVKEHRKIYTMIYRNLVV

MCF7 = test: Cytotoxicity to wild type p53 cells; format: cell-based; settings: Homo sapiens
VHL = VHL (Homo sapiens, UniProt P40337); test: HTRF binding assay for VHL (Table 2)
Description: (§1) Biochemical assays in 384-well format have established to assess the binding of newly synthesized PROTACs to the appropriate E3 ligase using HTRF technology. In these assays an anti-HIS antibody conjugated to terbium was used as the donor fluor, and either a Cy5 labeled small molecule probe, or a biotinylated peptide that is bound to a streptavidin acceptor.

Mdm2 [2] = biological target: T1, Mdm2; test: In-Cell Western, mut p53 MDA-MB-231 cell line; format: cell-based; set-up: endogenous in cells; host or cells: MCF7 (A8); MDA-MB-231 (A9); settings: mutant p53 MDA-MB-231
Procedure: (§2) Cells were seeded at decreasing cell number from 15K cells to 2K cells. The Mdm2 primary antibody was tested at 1:200 and 1:300 dilution. The secondary antibody conjugated to IRDye800CW was used with 1:800 dilution, and CellTag 700 Stain was used at 1:1000 dilution as manufacture recommended. The linearity of cell number versus signal was generated with Prism. The signal over background ratio was also calculated.
(§3) The potential PROTACs were evaluated in the wt p53 MCF7 cell line and in the mut p53 MDA-MB-231 cell line. Importantly these were compared to MD-224, which was recently reported to potently degrade Mdm2 in RS4; 11 leukemia cells (Li et al., 2019). Assay linearity was performed confirming a strong 4-fold signal to noise in the assay. A series of bi-functional molecules were then treated and evaluated for protein level in the assay over time from 2 h-48 h. […] In this wt p53 cancer cell line the stabilization of p53 (FIG. 15B), and subsequent p53-mediated transcriptional upregulation of Mdm2 make it difficult to observe degradation. […] These compounds were evaluated in the mutant p53 cancer cells. […] In this cell line, it takes approximately 16-24 h to detect the degradation. […] The difference in the molecules is that MD-224 utilizes a CRBN recruiting ligand.
Target sequence in this assay (Q00987 whole entry, the tested form may be a part): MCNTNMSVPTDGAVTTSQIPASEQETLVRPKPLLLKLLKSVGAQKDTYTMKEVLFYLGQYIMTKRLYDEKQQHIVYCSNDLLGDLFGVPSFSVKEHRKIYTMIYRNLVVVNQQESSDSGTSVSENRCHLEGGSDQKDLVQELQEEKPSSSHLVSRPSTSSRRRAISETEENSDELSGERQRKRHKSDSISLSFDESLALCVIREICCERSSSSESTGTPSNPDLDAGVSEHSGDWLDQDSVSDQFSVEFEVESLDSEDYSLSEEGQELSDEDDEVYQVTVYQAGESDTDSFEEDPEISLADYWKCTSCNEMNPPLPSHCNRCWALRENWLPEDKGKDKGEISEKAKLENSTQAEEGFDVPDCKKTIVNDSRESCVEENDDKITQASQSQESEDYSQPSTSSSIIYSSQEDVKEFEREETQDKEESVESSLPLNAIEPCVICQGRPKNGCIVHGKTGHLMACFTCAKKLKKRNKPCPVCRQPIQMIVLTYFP

mut p53 MDA-MD-231 cells = test: Live cell count with CellTag700 Stain in ICW format
Procedure: Cells are seeded in 96 half area well plates (black clear bottom) and cultured overnight. Then they are treated with compounds, fixed with 4% paraformaldehyde for 20 minutes, and permeabilized in 0.1% Triton. They are then treated with the primary antibody and secondary antibody conjugated to IRDye800CW or treated with CellTag 700 Stain. The plates are then scanned on the OdysseyCLX and the data processed to provide a dose response curve.
Since genetic deletion of Mdm2 induces p73 and induces apoptosis in p53 mutant and deficient cancer cells, YX-02-030 and YX-02-228 were evaluated for their effect on cell viability. First, the CellTag700 Stain was utilized to count the number of live cells in the ICW format.

[3] = biological target: T2, human cereblon (CRBN) complex (Homo sapiens, UniProt Q96SW2); test: HTRF binding assay for Cereblon (Table 2)
T2 construct: purchased R & D systems
Description: as §1
Cereblon: Recombinant human cereblon (CRBN) complex, including CUL4A, RBX1, DDB1 and CRBN is purchased from R & D systems. This four-member protein complex has an N-terminal HIS tag on the CUL4A subunit. The CRBN complex is diluted in assay buffer containing anti-HIS-Tb Cryptate Gold (CisBio) and is added to low volume 384-well plates. Test compounds in 100% DMSO are added to the plates followed by the Cy5-labeled lenolidamide probe. After 1 hour the HTRF signal is measured on the Envision. Data are normalized to % inhibition. The typical signal-to-noise is 5:1. Bi-functional molecules containing the Cereblon ligands are tested in TABLE 2 (see YX-02-041).

[4] = tested on: Mdm2-/-p53-/- sarcoma cells; test: Murine Mdm2-/-p53-/- sarcoma cells, MTT; format: cell-based, mouse; settings: MTT assay, 48 hrs
Description: A-B. Murine Mdm2+/+p53-null sarcoma cells treated with Mdm2 PROTAC (YX-02-030), control YX-02-023 (−), or vehicle (DMSO). A. Western blots after 24 hrs (cleaved caspase 3, CC3. Mdm2^−/−p53^−/− fibroblasts were a control for the Western blot). B. Dose response curve (MTT assay, 48 hrs). C. Dose response curves of murine Mdm2^−/−p53^−/− sarcoma cells treated with Mdm2 PROTAC (YX-02-030), negative controls (−), a Bcl2/Bclx/Bclw inhibitor (+), or vehicle control (MTT assay, quadruplicate, 48 hrs- MTT assay, B-C graphed relative to DMSO).

Mdm2 [5] = biological target: T1, Mdm2; test: In-Cell Western, wt p53 MCF7 cell line; format: cell-based; set-up: endogenous in cells; host or cells: MCF7 (A8); MDA-MB-231 (A9); settings: wt p53 MCF7, 2 h-48 h
Procedure: as §2, §3
Target sequence in this assay (Q00987 whole entry, the tested form may be a part): as above

VHL complex = biological target: T3, VHL complex (Homo sapiens, UniProt P40337); test: Inhibition of HIF-1α peptide binding to the VHL complex using HTRF (Table 3); settings: mean ± S.E.M. of three replications; read-out: VHL-HIFa peptide IC50
T3 construct: purchased R&D systems E3-655-025
Procedure: Assays contained 2 nM of HIS-VHL complex (R&D systems, E3-655-025), 2 nM of biotin-hydroxyproline-HIF1α peptide (Biotin-[…] (SEQ ID NO: 2), X=hydroxyproline), 0.3 nM anti-HIS-Tb HTRF donor antibody and 4 nM streptavidin-d2 HTRF acceptor (PerkinElmer) in a final volume of 10 μL of 25 mM HEPES, pH 7.4, 150 mM NaCl, 5 mM DTT, 0.005% Tween20 in white low volume 384-well plates. Both HIS-VHL complex and biotin-HIF1α peptide were pre-incubated with their respective HTRF antibodies for 15 min. Test compounds were solubilized at 10 mM in DMSO and concentration series was added to the assay plate using the Echo 650 acoustic liquid handling system by direct dilution. The final amount of DMSO added to the assay was 100 nL […]. Compounds were pre-incubated with HIS-VHL complex before the addition of the biotin-HIF1α peptide. After a 2 hr incubation, the HTRF signal was measured using the ClarioStar plate reader (BMG Labtech). […] IC50 values were determined from nonlinear regression fits of a data to a four parameter dose-response equation using XLFit (IDBS). Data are the means±S.E.M. of three replications. The data is described in Table 3 above.

Sequence of VHL (P40337 whole entry): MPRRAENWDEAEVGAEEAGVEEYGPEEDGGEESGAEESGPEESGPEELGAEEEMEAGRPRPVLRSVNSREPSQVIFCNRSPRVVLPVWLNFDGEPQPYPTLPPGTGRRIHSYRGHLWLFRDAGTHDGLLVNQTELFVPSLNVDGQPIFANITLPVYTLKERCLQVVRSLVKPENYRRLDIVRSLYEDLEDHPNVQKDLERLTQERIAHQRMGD
Sequence of VHL (Q15370 whole entry partner): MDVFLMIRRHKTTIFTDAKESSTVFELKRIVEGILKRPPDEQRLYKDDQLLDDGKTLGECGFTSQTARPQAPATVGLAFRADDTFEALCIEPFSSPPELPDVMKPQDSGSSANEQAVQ
Sequence of VHL (Q15369 whole entry partner): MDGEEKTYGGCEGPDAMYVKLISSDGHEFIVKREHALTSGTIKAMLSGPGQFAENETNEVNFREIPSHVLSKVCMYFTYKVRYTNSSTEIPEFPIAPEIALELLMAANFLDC
T3 sequence (P40337 whole entry): as the sequence (P40337 whole entry) above
T3 sequence (Q15370 whole entry partner): as the sequence (Q15370 whole entry partner) above
T3 sequence (Q15369 whole entry partner): as the sequence (Q15369 whole entry partner) above
T3 sequence (Q13617 whole entry partner): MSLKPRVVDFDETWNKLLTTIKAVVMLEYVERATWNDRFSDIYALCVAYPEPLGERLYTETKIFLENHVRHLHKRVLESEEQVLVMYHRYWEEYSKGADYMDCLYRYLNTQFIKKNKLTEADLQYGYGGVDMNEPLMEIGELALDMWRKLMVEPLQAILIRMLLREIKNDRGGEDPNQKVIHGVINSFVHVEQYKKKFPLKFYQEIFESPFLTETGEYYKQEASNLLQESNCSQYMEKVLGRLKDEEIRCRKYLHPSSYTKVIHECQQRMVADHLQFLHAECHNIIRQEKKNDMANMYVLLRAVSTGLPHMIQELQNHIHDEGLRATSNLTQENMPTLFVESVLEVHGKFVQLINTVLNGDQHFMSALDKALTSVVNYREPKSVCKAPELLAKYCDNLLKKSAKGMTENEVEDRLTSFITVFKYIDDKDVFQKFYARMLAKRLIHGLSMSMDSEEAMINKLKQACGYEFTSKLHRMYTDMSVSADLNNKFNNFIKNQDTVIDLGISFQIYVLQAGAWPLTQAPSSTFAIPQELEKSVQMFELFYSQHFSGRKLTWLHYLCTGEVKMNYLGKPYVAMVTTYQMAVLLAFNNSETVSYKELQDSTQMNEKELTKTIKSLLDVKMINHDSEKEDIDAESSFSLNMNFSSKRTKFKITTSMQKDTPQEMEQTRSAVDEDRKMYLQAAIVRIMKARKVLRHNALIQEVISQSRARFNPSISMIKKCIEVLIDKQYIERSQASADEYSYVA
T3 sequence (P62877 whole entry partner): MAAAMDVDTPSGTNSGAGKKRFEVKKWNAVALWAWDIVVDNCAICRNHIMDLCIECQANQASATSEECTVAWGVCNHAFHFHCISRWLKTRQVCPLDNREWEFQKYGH
T2 sequence (Q96SW2 whole entry): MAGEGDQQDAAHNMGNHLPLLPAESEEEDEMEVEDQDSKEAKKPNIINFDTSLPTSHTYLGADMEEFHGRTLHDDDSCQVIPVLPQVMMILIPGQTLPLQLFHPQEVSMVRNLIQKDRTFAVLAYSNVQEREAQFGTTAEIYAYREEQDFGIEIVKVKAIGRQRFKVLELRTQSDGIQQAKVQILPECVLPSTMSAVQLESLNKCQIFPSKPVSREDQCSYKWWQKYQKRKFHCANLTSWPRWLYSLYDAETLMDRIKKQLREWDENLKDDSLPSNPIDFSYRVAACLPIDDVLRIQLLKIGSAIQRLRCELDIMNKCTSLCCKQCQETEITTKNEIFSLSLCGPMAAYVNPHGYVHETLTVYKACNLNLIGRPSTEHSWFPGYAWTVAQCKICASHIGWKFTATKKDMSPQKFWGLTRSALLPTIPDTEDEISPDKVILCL
T2 sequence (Q16531 whole entry partner): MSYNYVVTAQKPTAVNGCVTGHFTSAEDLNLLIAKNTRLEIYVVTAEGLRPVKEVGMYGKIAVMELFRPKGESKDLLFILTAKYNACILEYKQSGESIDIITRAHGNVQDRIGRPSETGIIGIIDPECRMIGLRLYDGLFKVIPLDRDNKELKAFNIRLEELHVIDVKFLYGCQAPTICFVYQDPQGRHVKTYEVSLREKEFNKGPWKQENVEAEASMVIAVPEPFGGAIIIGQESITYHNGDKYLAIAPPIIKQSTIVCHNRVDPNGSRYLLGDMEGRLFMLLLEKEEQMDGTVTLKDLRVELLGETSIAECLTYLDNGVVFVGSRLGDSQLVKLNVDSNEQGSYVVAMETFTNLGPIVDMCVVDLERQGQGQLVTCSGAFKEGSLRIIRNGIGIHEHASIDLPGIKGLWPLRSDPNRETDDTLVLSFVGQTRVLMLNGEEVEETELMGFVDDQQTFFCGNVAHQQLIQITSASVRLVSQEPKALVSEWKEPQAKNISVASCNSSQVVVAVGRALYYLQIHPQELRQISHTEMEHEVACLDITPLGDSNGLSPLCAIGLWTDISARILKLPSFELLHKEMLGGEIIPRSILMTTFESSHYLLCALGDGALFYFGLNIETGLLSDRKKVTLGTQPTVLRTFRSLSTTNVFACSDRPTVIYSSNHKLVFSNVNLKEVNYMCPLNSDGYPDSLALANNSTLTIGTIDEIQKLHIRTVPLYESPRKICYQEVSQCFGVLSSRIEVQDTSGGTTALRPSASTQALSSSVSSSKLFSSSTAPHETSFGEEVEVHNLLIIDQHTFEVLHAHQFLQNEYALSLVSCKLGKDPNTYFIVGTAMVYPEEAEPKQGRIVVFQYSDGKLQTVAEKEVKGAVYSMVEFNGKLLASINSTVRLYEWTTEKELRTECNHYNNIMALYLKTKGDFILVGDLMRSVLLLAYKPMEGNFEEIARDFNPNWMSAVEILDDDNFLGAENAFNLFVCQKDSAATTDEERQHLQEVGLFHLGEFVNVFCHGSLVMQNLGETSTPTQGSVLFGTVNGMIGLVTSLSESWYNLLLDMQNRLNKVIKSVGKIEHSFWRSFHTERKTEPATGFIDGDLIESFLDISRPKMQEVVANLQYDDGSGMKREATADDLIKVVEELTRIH
T2 sequence (Q13619 whole entry partner): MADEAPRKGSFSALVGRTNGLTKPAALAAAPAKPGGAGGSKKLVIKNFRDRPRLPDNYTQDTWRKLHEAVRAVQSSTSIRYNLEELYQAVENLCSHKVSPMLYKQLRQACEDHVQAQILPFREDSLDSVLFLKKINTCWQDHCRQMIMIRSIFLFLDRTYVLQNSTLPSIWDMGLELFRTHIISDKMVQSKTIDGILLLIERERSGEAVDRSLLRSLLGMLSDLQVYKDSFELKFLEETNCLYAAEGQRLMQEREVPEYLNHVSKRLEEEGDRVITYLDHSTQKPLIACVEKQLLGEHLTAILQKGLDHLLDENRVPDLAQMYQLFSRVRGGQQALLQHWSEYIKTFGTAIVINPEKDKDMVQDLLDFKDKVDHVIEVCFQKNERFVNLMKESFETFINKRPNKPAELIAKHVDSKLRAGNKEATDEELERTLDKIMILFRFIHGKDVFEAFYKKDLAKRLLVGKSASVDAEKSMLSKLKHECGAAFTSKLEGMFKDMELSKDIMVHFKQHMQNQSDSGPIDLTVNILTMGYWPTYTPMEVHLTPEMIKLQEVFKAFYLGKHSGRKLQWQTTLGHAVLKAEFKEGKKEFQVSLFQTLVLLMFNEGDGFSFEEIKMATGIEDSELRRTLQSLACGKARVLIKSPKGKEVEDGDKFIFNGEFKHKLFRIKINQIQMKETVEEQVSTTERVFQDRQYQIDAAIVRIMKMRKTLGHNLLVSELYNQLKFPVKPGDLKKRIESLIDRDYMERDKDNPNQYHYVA
T2 sequence (P62877 whole entry partner): as the sequence (P62877 whole entry partner) above

Structure (SMILES): CCOc1cc(C(C)(C)C)ccc1C1=N[C@@](C)(c2ccc(Cl)cc2)[C@@](C)(c2ccc(Cl)cc2)N1C(=O)N1CCN(CC(=O)NCCCCNC(=O)COc2cccc3c2C(=O)N(C2CCC(=O)NC2=O)C3=O)CC1 (mixture of isomers) [YX-02-041, 2-(4-((4S,5R)-2-(4-(tert-butyl)-2-ethoxyphenyl)-4,5-bis(4-chlorophenyl)-4,5-dimethyl-4,5-dihydro-1H-imidazole-1-carbonyl)piperazin-1-yl)-N-(4-(2-((2-(2,6-dioxopiperidin-3-yl)-1,3-dioxoisoindolin-4-yl)oxy)acetamido)butyl)acetamide]
- IC50 (Mdm2 [1]): 0.003 µM
- IC50 (MCF7): ~20 µM
- IC50 (VHL): > 10 µM
- Mdm2 degradation (Mdm2 [2]): did not provide robust degradation
- cytotoxicity to mutant p53 cells (mut p53 MDA-MD-231 cells; other studies, compared with MCF7): much less cytotoxic

Structure (SMILES): CCOc1cc(C(C)(C)C)ccc1C1=NC(C)(c2ccc(Cl)cc2)C(C)(c2ccc(Cl)cc2)N1C(=O)N1CCN(CC(=O)N[C@H](C(=O)N2C[C@H](O)C[C@H]2C(=O)NCc2ccc(-c3scnc3C)cc2)C(C)(C)C)CC1 (stereo in doubt) [YX-02-230, 1-(2-(2-(4-((4S,5R)-2-(4-(tert-butyl)-2-ethoxyphenyl)-4,5-bis(4-chlorophenyl)-4,5-dimethyl-4,5-dihydro-1H-imidazole-1-carbonyl)piperazin-1-yl)acetamido)-3,3-dimethylbutanoyl)-4-hydroxy-N-(4-(4-methylthiazol-5-yl)benzyl)pyrrolidine-2-carboxamide]
- IC50 [3]: > 10 µM
- IC50 (Mdm2 [1]): 0.018 µM

Structure (SMILES): CC1(C)CCC(c2ccc(Cl)cc2)=C(CN2CCN(c3ccc(C(=O)NS(=O)(=O)c4ccc(N[C@H](CCN5CCOCC5)CSc5ccccc5)c(S(=O)(=O)C(F)(F)F)c4)cc3)CC2)C1 [ABT-263/Navitoclax, Navitoclax, reference compound]
- response of Mdm2-/-p53-/- sarcoma cells [4]: responsive

Structure (SMILES): O=C1CCC(N2Cc3c(C#CCCCNC(=O)c4ccc(NC(=O)[C@@H]5NC6(CCCCC6)[C@@]6(C(=O)Nc7cc(Cl)ccc76)[C@H]5c5cccc(Cl)c5F)cc4)cccc3C2=O)C(=O)N1 (stereo partly drawn) [MD-224, reference compound]
- Mdm2 protein level (Mdm2 [5]): modest degradation
- Mdm2 degradation (Mdm2 [2]): did not reduce Mdm2 protein level
- cytotoxic effect, number of live cells (mut p53 MDA-MD-231 cells; after 24 h and 48 h treatment): no cytotoxic effect

Structure (SMILES): COc1ccc(C2=N[C@@H](c3ccc(Cl)cc3)[C@@H](c3ccc(Cl)cc3)N2C(=O)N2CCNC(=O)C2)c(OC(C)C)c1 [Nutlin-3, reference compound]
- IC50 (VHL complex): > 10 µM
